# What was measured:
# [1] = system: hpol κ-deficient HAP-1 cells; test: Clonogenic survival assay; assay type: cell-based, human
# Description: (§1) HAP-1 and hpol κ^KO cells were purchased from Horizons Discovery Group LLC (Cambridge, UK). The company generated the Hap1 cells using CRISPR-Cas9 technology and the elimination of kappa expression was confirmed by Sanger sequence genome editing. We further confirmed the elimination of hpol κ protein expression by Western blotting (data not shown). Hap1 cells were cultured in Iscove's modified Dulbecco's medium (IMDM; Invitrogen, CA, USA) supplemented with 10% (v/v) fetal bovine serum (FBS; Atlas Biologicals, CO, USA) and 1% (v/v) antibiotic/antimycotic solution (Sigma-Aldrich, MO, USA).T98G cells were purchased from ATCC (American Type Culture Collection, VA, USA). T98G cells were cultured in MEM (Minimum Essential Medium) (Invitrogen, CA, USA) supplemented with 10% (v/v) FBS (Fetal Bovine Serum, Atlas Biologicals, CO, USA) and antibiotic/antimycotic solution (1%, v/v) (Sigma-Aldrich, MO, USA). NT2 cells were kindly provided by Dr. Michael Borrelli (University of Arkansas for Medical Sciences, AR, USA). NT2 cells were cultured in DMEM/F12 (Dulbecco's Modified Eagle Medium) supplemented with 10% (v/v) FCS (Fetal Calf Serum) and antibiotic/antimycotic solution (1%) (Sigma-Aldrich, MO, USA).
# (§2) To measure the clonogenic ability, cells were plated (500 cells per well) in 6-well dishes. In the case of HAP-1 cells, cells were treated the following day after plating, with temozolomide (TMZ) (0, 1, 5, 50, 125 and 250 μM) alone or in combination with UAMS-48 (0.1 and 0.5 μM) for 1 hour. In the case of T98G and NT2 cells, treatment was done on the following day of plating, with increasing concentrations of TMZ alone or in combination with UAMS-48 (50 nM) for 3 hrs. T98G and NT2 cells were treated with increasing concentrations of UAMS-48 for 3 hrs. After treatment, cells were cultured in fresh IMDM supplemented with 10% FBS for 10 days. The colonies were gently washed with 1×PBS, fixed with 3.7% (v/v) formaldehyde for 20 mins at RT and stained with crystal violet solution (Sigma-Aldrich, MO, USA) for 30 mins at RT.
# (§3) The fixed crystal-violet stained colonies in each 6-well plate were examined under an EVOS XL Core imaging system (Thermo Fisher Scientific) under bright-field, and the colonies were inspected manually. […] Color images of each 6-well plate were captured and opened for processing using the Fiji version of the freely available software ImageJ. Setting the appropriate threshold for counting colonies for each cell type, corresponding to the respective radii calculated previously, the colonies were counted using the Colony Area plugin of ImageJ. Manual counting was performed on a few wells picked randomly, and the colony count so obtained was tallied with the number obtained using ImageJ, to ensure they matched reasonably. All experiments were performed in triplicate, and the colony number for each well was expressed as the mean (±standard deviation). The results were plotted to generate a dose response curve for TMZ treatment using the software Graphpad Prism, where the mean number of colonies was plotted along the Y-axis, and the TMZ concentration along the X-axis. Bar charts comparing the mean number of colonies as a function of the various conditions were also plotted for both cell types. Combination index values were calculated using the Chou-Talalay method (Chou 2010).
# [2] = system: hpol κ-proficient HAP-1 cells; test: Clonogenic survival assay; assay type: cell-based, human
# Description: as §1, §2, §3
# T98G cells = test: Clonogenic survival assay; assay type: cell-based, human
# [3] = system: hpol κ-deficient HAP-1 cells; test: Alkaline comet assay; assay type: cell-based, human
# Description: (§4) To evaluate DNA damage upon treatment with TMZ and the compound IAG-10, the alkaline comet assay was performed using protocol as described by the manufacturer (Trevigen, Gaithersburg, MD). Briefly, 100 000 HAP-1 cells per well for both the hpol κ-proficient and hpol κ-deficient cell types were plated in a 12-well dish. Both types of cells were treated with 0.5 μM of IAG-10 alone or in combination with TMZ (100 μM) for 1 h. Cells treated with DMSO served as the control. Following treatment, cells were harvested, washed in ice-cold Ix PBS, and counted. The cells were then suspended in low-melting agarose to a final dilution of 200-300 cells per well on the comet slide. The comet slides with wells coated with cell/agarose mixture were incubated at 4° C. in the dark to allow the agarose to solidify before immersing the slides in proprietary lysis solution for 1 h. Each comet slide was then immersed in an alkaline unwinding solution (200 mM NaOH, 1 mM EDTA) for 20 min at RT before placing them in the electrophoresis unit in […] of the same solution. Samples were electrophoresed at 21 V for 30 min at 4° C. The comet slides were washed and dried completely at 37° C. before staining with SYBR Gold diluted in TE buffer (10 mM Tris-HCl, pH 7.5, 1 mM EDTA). The comets were visualized using an EVOS FL Auto microscope (Life Technologies, Carlsbad, CA) set at 10× magnification and were scored using CometScore software. All experiments were repeated in 3 biological replicates with at least 60 comets scored for each condition. Results were plotted using Graphpad Prism, as the percent of DNA in the tail of each comet, and statistical significance between treatment conditions was calculated using one-way ANOVA with the Bonferroni posthoc correction.
# [4] = system: hpol κ-proficient HAP-1 cells; test: Alkaline comet assay; assay type: cell-based, human
# Description: as §4
# T98G spheroids (GSC) = test: GSC clonogenic survival assay; assay type: cell-based; conditions: 50 nM, 3 hours
# Description: GSC clonogenic survival assay. Spheroids proficient and deficient in hpol κ were cultured for 12 days as described above before treating with PNR 7-48 (50 nM) for 3 hours. Spheroids were harvested, titrated into single cell populations and counted via trypan blue exclusion assay. Around 500 viable cells were plated per well in a 6 well dish and allowed to recover for 8-10 days in MEM with 10% FBS. Cells were fixed with 4% formaldehyde (v/v) for 30 min followed by staining with crystal violet (Sigma Aldrich, St. Louis, MO) for 30 min. Total number of colonies were counted using the EVOS microscope, with viable colonies consisting of 25 cells or more. This experiment was done in technical triplicate. As with spheroid growth, clonogenic survival was impeded for T98G cells lacking hpol κ activity (FIG. 11).
# [5] = system: hpol κ-proficient HAP-1 cells; test: supF mutagenesis assay; conditions: 1 μM IAG-10, 24 h
# Description: HAP-1 hpol κ-proficient and hpol κ-deficient cells were cultured in 10 cm dishes to ~80% confluency in Iscove's modified Dulbecco's medium (Invitrogen) containing 10% (v/v) FBS supplemented with Ix antibiotic antimycotic solution (Sigma). They were transfected with unmodified (control) and methylmethanesulfonate (MMS)-modified pSP189 plasmid harboring the supF gene either in the absence or presence of 1 μM IAG-10. For plasmid modification with MMS, the pSP189 plasmid was first incubated with 100 mM MMS in 10 mM HEPES buffer (pH 7.5) containing 50 mM KCl, 5 mM MgCl2, and 1 mM dithiothreitol at RT for 1 h. The MMS-modified plasmid was then purified by ethanol precipitation and used in subsequent transfections, similar to the unmodified plasmid. […] The recovered plasmids (75-100 ng) were then transformed into E. coli MBM7070 strain by electroporation, and the transformed bacterial cells were plated on LB-agar plates containing 100 μg/mL ampicillin, 1 mM isopropyl-I-thio-fi-Dgalactopyranoside (IPTG) and 100 μg/mL X-gaL The resulting blue (nonmutated) and white (mutated) colonies were counted. The mutation frequency was calculated as the ratio of mutant (white) colonies to total (blue+white) colonies. At least 10 000 colonies were counted for each condition, and the results reported represent the mean (±SD) of experiments performed in biological triplicate.
# [6] = 100 μM TMZ + 0.5 μM IAG-10, 1 h
# [7] = single agent, 1 h: 0.5 μM IAG-10 or 100 μM TMZ
structure (smiles),measurement,setting,value
"Cl.[H]/N=C(\N)NN=Cc1cn(C(=O)c2cccc3ccccc23)c2ccc(Cl)cc12 [IAG-10, (E)-2-((1-(1-naphthoyl)-5-chloro-1H-indol-3-y1)methylene)hydrazine-1-carboximidamide hydrochloride]","colony formation, compound alone",[1]; 0.5 μM IAG-10,does not impair colony formation
same,"colony forming ability, co-treatment over TMZ alone",[1]; TMZ + 0.5 μM IAG-10,did not show any significant reduction in colony forming ability
same,"colony formation, compound alone",[2]; 0.5 μM IAG-10,does not impair colony formation
same,colonies formed relative to untreated cells,"[2]; 250 μM TMZ + 0.5 μM IAG-10 co-treatment, 1 hour",~ 40%
same,"combination index (TMZ and IAG-10, Chou-Talalay)",T98G cells; IAG-10 50 nM + TMZ,0.09
same,decrease of cell proliferation (clonogenic) compared to TMZ alone,"T98G cells; IAG-10 50 nM along with TMZ, 3 hrs",~ 10 fold
same,decrease in GBM-derived cell proliferation compared to NT2 cells,"T98G cells; IAG-10 alone, concentrations above that used for combination",~ 2 fold
same,"DNA damage (percent DNA in the tail), combination",[3]; [6],did not increase further
same,DNA damage (percent DNA in the tail) compared to control,[3]; [7],did not increase DNA damage over control
same,"DNA damage (percent DNA in the tail), combination",[4]; [6],increased even further
same,DNA damage (percent DNA in the tail) compared to control,[4]; [7],approximately twofold
same,GSC differentiation,T98G spheroids (GSC),inhibit GSC differentiation
same,mutation frequency for the undamaged plasmid,[5],did not change the mutation frequency
same,mutation frequency for MMS-damaged DNA over the undamaged control plasmid,[5]; MMS-damaged pSP189,approximately twofold
